{"source": "paper PMC7887336", "about": "“Altered functional properties of the codling moth Orco mutagenized in the intracellular loop-3” (Scientific Reports, 2021)", "key": {"[1]": {"target": "T1, CpomOrco (Cydia pomonella, UniProt H9A5M2)", "T1 sequence (H9A5M2 entry or part of it)": "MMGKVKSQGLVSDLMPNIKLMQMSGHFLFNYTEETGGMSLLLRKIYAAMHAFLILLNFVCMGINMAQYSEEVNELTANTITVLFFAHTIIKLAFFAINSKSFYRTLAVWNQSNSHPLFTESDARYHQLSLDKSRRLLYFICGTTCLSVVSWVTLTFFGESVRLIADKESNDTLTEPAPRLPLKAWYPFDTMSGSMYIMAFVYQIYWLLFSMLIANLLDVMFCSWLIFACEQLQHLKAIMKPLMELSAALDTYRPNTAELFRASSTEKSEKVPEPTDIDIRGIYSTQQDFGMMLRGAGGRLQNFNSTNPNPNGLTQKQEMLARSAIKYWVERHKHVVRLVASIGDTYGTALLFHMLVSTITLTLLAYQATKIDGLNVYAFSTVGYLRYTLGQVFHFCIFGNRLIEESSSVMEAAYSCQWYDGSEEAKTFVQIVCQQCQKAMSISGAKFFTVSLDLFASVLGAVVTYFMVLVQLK", "assay": "Calcium imaging (Fluo-4) of HEK293A cells transfected with wild-type CpomOrco, VUAA1 stimulation", "format": "cell-based", "conditions": "for Fluo4 + cells, %: of bright field cells; for EC50 / Hill coefficient / maximum response (Hill fit of calcium response amplitudes): HEK293A, CpomOrco", "protocol": "(§1) HEK293 cells lines (HEK293A/HEK293T) were grown in HEK cell media [Dulbecco's modified Eagle's medium containing 10% fetal bovine serum (MP Biomedicals, Solon, OH, USA), 2.0 mM L-glutamine, and 100 µg/mL penicillin/streptomycin (Invitrogen)] at 37 °C and 5% CO2. To test transient expression of wild type CpomOrco and CpomOrco^Q417H variant for calcium imaging and patch-clamp recording, 35-mm petri dishes containing semi-confluent HEK293A cells were transiently transfected. Cells were transfected with 0.6 µg of pcDNA40-DEST carrying the coding sequence of the CpomOrco variant (depending on the experiments). To report expression for calcium imaging experiments, 0.6 µg of a separate plasmid DNA [pEBFP2-Nuc, a gift from Robert Campbell (Addgene plasmid # 1489352)] carrying the coding sequence for a blue fluorescent protein (EBFP) was co-transfected. To report expression in patch-clamp recordings, 1.0 µg of a separate plasmid DNA (pXOOM, Clontech, Mountain View, CA, USA) carrying the coding sequence for a green fluorescent protein (GFP) was co-transfected. Expressions of fluorescent reporter genes were under the regulation of the same promoter for Cpom-genes (CMV). For specific experiments, co-transfections were conducted combining an additional 1.2 µg of pcDNA40-DEST/CpomOR3 or pcDNA40-DEST/CpomOR6a, as we previously described. Co-transfections with CpomOR3 were performed for dose–response experiments to pear ester: CpomOR3 was co-expressed with CpomOrco variants by the use of HEK293T (Fig. 3b); given the reported functional co-expression data of the CpomOrco + OR3 heteromers by the use of these specific cells. In brief, transfection DNAs were dissolved in 100 µL sterile DMEM, mixed with 3.0 µL Calfectin (SignaGen, Rockville, MD, USA) following the recommended protocol. Transfections were conducted overnight for up to 18 h, HEK cell media was replaced with 2.0 mL fresh media to incubate cells at 37 °C for up to 6–8 h, at which point part of the cell culture was spread in the middle of a 35-mm plate as individual cells or small clusters and rinsed at the sides with 2.0 mL fresh HEK media. After splitting, cells were allowed to recover for at least 1 day prior to calcium imaging.\nActivation of HEK293 cells transfected with CpomOrco variants was tested using the same procedures we previously described. Petri dishes were incubated for 1 h at room temperature in 1.0 mL HEK Ca^++ Ringer (mM: 140 NaCl, 5.0 KCl, 2.0 CaCl2, 10 HEPES, pH 7.4) containing the fluorescent calcium indicator Fluo-4AM (Invitrogen) at 5–15 µM prepared with 0.2–0.06% Pluronic F-127 (Invitrogen). To monitor intracellular pH, HEK293A cells were loaded with 10.0 µL BCECF dye (Anaspec, Fremont, CA).\nAs reported in Cattaneo et al.[14], the buffer was removed after incubation, cells were rinsed with 4.0 mL fresh HEK Ca^++ Ringer and placed on the stage of an inverted microscope (Olympus IX-71, Olympus Corp., Tokyo, Japan) equipped with a cooled CCD camera (ORCA R2, Hamamatsu, Hamamatsu City, Japan). Cells were continuously superfused with Ca^++ Ringer using two gravity fed perfusion contours. The […] contour washing the cells (~ 250 µL/min) was switched rapidly to the stimulus contour using a multi-channel rapid solution changer (RSC-160, Bio-Logic, Claix, France) under the software control of Clampex 9 (Molecular Devices, Sunnyvale, CA, USA).\n(§2) Fluorescence imaging was performed using settings optimized for Imaging Workbench 6 software (INDEC BioSystems, Santa Clara, CA, USA)[14]. The non-responsive cells were not included in these analyses. Each cell was assigned a region of interest (ROI) and changes in fluorescence intensity within each ROI were measured and expressed as the fractional change in fluorescence intensity (dF). Stored time series image stacks were analysed off-line using Imaging Workbench 6, Clampfit 10.5 (Molecular Devices) and SigmaPlot 11 (Systat Software Inc., San Jose, CA, USA). Dose–response curves were approximated using Hill equation. […]"}, "[2]": {"tested_on": "CpomOrco+OR6a", "assay": "VUAA1 responsiveness (Fluo4 +) of HEK293A cells co-transfected with CpomOrco and CpomOR6a", "format": "cell-based, Cydia pomonella", "conditions": "for Fluo4 + cells, %: of bright field cells", "protocol": "HEK293 cells lines (HEK293A/HEK293T) were grown in HEK cell media [Dulbecco's modified Eagle's medium containing 10% fetal bovine serum (MP Biomedicals, Solon, OH, USA), 2.0 mM L-glutamine, and 100 µg/mL penicillin/streptomycin (Invitrogen)] at 37 °C and 5% CO2. To test transient expression of wild type CpomOrco and CpomOrco^Q417H variant for calcium imaging and patch-clamp recording, 35-mm petri dishes containing semi-confluent HEK293A cells were transiently transfected. Cells were transfected with 0.6 µg of pcDNA40-DEST carrying the coding sequence of the CpomOrco variant (depending on the experiments). To report expression for calcium imaging experiments, 0.6 µg of a separate plasmid DNA [pEBFP2-Nuc, a gift from Robert Campbell (Addgene plasmid # 1489352)] carrying the coding sequence for a blue fluorescent protein (EBFP) was co-transfected. To report expression in patch-clamp recordings, 1.0 µg of a separate plasmid DNA (pXOOM, Clontech, Mountain View, CA, USA) carrying the coding sequence for a green fluorescent protein (GFP) was co-transfected. Expressions of fluorescent reporter genes were under the regulation of the same promoter for Cpom-genes (CMV). For specific experiments, co-transfections were conducted combining an additional 1.2 µg of pcDNA40-DEST/CpomOR3 or pcDNA40-DEST/CpomOR6a, as we previously described. […]\nas §2, with “The non-responsive cells were not included in these analyses.” left out, “USA).” for “USA). Dose–response curves were approximated using Hill equation.”"}, "[3]": {"target": "T1, CpomOrco", "assay": "Whole-cell voltage-clamp recordings of HEK293A cells transfected with CpomOrco, VUAA1", "format": "cell-based", "conditions": "for EC50: EC50 (K1/2)", "protocol": "as §1\nElectrophysiological experiments were performed according with the same procedures we previously described. Patch pipettes were fabricated from borosilicate capillary glass (BF150-86–10, Sutter Instrument, CA, USA) using a Flaming-Brown micropipette puller (P-87, Sutter Instrument). Only patches with initial cell-attached seal resistance estimated higher than 1.0 GOhms were used in the experiments. Intracellular (pipette) solution for whole-cell experiments was KCl 140 mM, EGTA 1 mM, Hepes 5 mM, MES 5 mM, pH 8.0 or pH 5.5 (depending on the experiment) adjusted with either NaOH or HCl, standard Na^+ 140 mM. bath solution was usually NaCl 140 mM, EGTA 0.1 mM, Hepes 10 mM, pH 7.4 (adjusted with Tris-base or NaOH). VUAA1 doses (0–1000 µM) were added to the extracellular test solutions.\nAs described in methods of Cattaneo et al.[14], GFP positive HEK293A cells were visualized using either an Axiovert 100 inverted microscope (Carl Zeiss, Inc., München, Germany) equipped with a mercury vapour compressed-arc lamp (HBO100) coupled to widefield fluorescence filter set (1114–459, Carl Zeiss, Inc.) or Olympus IX-71 inverted microscope described above (Olympus Corp.). The Orco channel-mediated currents were investigated using whole-cell patch-clamp recordings. The currents were measured with a 200B patch-clamp amplifier (Molecular Devices) and a digital interface (Digidata 1320A, Molecular Devices), low pass filtered at 5.0 kHz, sampled at 1–2 kHz. Analysis of the data was carried out using pCLAMP 9.2/10.5 software (Molecular Devices) and SigmaPlot 11 (Systat Software Inc). […]"}, "[4]": {"conditions": "after 30 min incubation at low pHe = 4.7"}, "[5]": {"conditions": "intracellular pH = 5.5, extracellular pH 7.4, -50 mV"}, "[6]": {"conditions": "intracellular pH = 8.0, extracellular pH 7.4, -50 mV"}}, "note": "Where “and” joins values, the source holds several entries; their conditions need not be identical. Equal values may be shown once.", "data": [{"compound": "CCc1ccc(NC(=O)CSc2nnc(-c3cccnc3)n2CC)cc1", "note": "[VUAA1, acetamide,N-(4-ethylphenyl)-2-[[4-ethyl-5-(3-pyridinyl)-4H-1,2,4-triazol-3-yl]thio]-]", "values": [{"measurement": "Fluo4 + cells, %", "setting": "[1]; 800 µM VUAA1, Experiment 1, CpomOrco", "value": "30,99%"}, {"measurement": "Fluo4 + cells, %", "setting": "[1]; 800 µM VUAA1, Experiment 2, CpomOrco", "value": "35,06%"}, {"measurement": "percentage of cells sensitive to VUAA1 (relative to total number of visible cells)", "setting": "[1]; 800 µM VUAA1, HEK293A transfected with CpomOrco and EBFP, range of two experiments", "value": "30.99–35.06%"}, {"measurement": "EC50", "setting": "[1]; [4]", "value": "~260", "unit": "µM"}, {"measurement": "Hill coefficient", "setting": "[1]; [4]", "value": "~ 2.5 ± 4.3"}, {"measurement": "maximum response (Hill fit of calcium response amplitudes)", "setting": "[1]; after 30 min incubation at low pHe = 4.7, n = 84, constraints applied to fit", "value": "~ 1.3 ± 0.7 ∆F and 1.3 ∆F"}, {"measurement": "Hill coefficient", "setting": "[1]; control pH conditions (pH 7.4)", "value": "~ 2.4 ± 0.1"}, {"measurement": "EC50", "setting": "[1]; control pH conditions (pH 7.4), Hill fit", "value": "~157", "unit": "µM"}, {"measurement": "maximum response (Hill fit of calcium response amplitudes)", "setting": "[1]; control pH conditions (pH 7.4), N = 123 cells", "value": "~ 6.3 ∆F and ~ 6.3 ± 0.1 ∆F and 6.3 ∆F"}, {"measurement": "Fluo4 + cells, %", "setting": "[2]; 800 µM VUAA1, Experiment 3, CpomOrco+OR6a", "value": "48,34%"}, {"measurement": "Fluo4 + cells, %", "setting": "[2]; 800 µM VUAA1, Experiment 4, CpomOrco+OR6a", "value": "49,71%"}, {"measurement": "percentage of VUAA-responsive cells", "setting": "[2]; 800 µM VUAA1, HEK293A co-transfected with CpomOrco, CpomOR6a and EBFP, range of two experiments", "value": "48.34–49.71%"}, {"measurement": "EC50", "setting": "[3]; [5]", "value": "~561", "unit": "µM"}, {"measurement": "EC50", "setting": "[3]; [6]", "value": "~403", "unit": "µM"}, {"measurement": "h (Hill equation)", "setting": "[3]; intracellular pH = 5.5", "value": "~ 5 ± 3.9"}, {"measurement": "number of cells sensitive to VUAA1", "setting": "[3]; intracellular pH = 5.5, GFP positive cells tested", "value": "3 out of 4"}, {"measurement": "Imax (whole-cell current amplitude, Hill fit)", "setting": "[3]; [5]", "value": "~ 196 pA and ~ 196 + -32 pA"}, {"measurement": "h (Hill equation)", "setting": "[3]; intracellular pH = 8.0", "value": "~ 4 ± 0.6"}, {"measurement": "number of cells sensitive to VUAA1", "setting": "[3]; intracellular pH = 8.0, GFP positive cells tested", "value": "8 out of 13"}, {"measurement": "Imax (whole-cell current amplitude, Hill fit)", "setting": "[3]; [6]", "value": "~ 784 pA and ~ 784 ± 40 pA"}]}]}
